Measured values reported in PubChem BioAssay (NCI).
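In this assay, cells in 96-well plates receive the compound at five concentrations for 48 hours. Endpoints are linearly interpolated between the surrounding concentrations. Here, GI50 denotes the concentration required for 50% inhibition of growth. At the TGI there is no net growth.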

What was measured:
Assay in all cases: inhibition of tumour cell growth, NCI panel, 48 h
HCT-116 colon = system: HCT-116 colon
SF-295 CNS = system: SF-295 CNS
SK-MEL-28 melanoma = system: SK-MEL-28 melanoma
SF-539 CNS = system: SF-539 CNS
NCI-H226 lung = system: NCI-H226 lung
OVCAR-3 ovarian = system: OVCAR-3 ovarian
SN12C renal = system: SN12C renal
HL-60(TB) leukemia = system: HL-60(TB) leukemia
UO-31 renal = system: UO-31 renal
SK-OV-3 ovarian = system: SK-OV-3 ovarian
HS 578T breast = system: HS 578T breast
CAKI-1 renal = system: CAKI-1 renal
OVCAR-5 ovarian = system: OVCAR-5 ovarian
MDA-MB-231 breast = system: MDA-MB-231 breast
OVCAR-4 ovarian = system: OVCAR-4 ovarian
A549 NSCLC = system: A549 NSCLC
HT29 colon = system: HT29 colon
SW-620 colon = system: SW-620 colon
RPMI-8226 leukemia = system: RPMI-8226 leukemia
LOX IMVI melanoma = system: LOX IMVI melanoma
CCRF-CEM leukemia = system: CCRF-CEM leukemia
786-0 renal = system: 786-0 renal
KM12 colon = system: KM12 colon
SNB-75 CNS = system: SNB-75 CNS
MCF7 breast = system: MCF7 breast
HOP-92 NSCLC = system: HOP-92 NSCLC
SK-MEL-2 melanoma = system: SK-MEL-2 melanoma
MOLT-4 leukemia = system: MOLT-4 leukemia
K-562 leukemia = system: K-562 leukemia
IGROV1 ovarian = system: IGROV1 ovarian
NCI-H23 lung = system: NCI-H23 lung
M14 melanoma = system: M14 melanoma
MALME-3M melanoma = system: MALME-3M melanoma
ACHN renal = system: ACHN renal
NCI/ADR-RES ovarian = system: NCI/ADR-RES ovarian
PC-3 prostate = system: PC-3 prostate
SR leukemia = system: SR leukemia
TK-10 renal = system: TK-10 renal
NCI-H522 lung = system: NCI-H522 lung
DU-145 prostate = system: DU-145 prostate
COLO 205 colon = system: COLO 205 colon
OVCAR-8 ovarian = system: OVCAR-8 ovarian
EKVX NSCLC = system: EKVX NSCLC
MDA-MB-435 = system: MDA-MB-435
HCT-15 colon = system: HCT-15 colon
NCI-H460 lung = system: NCI-H460 lung
BT-549 breast = system: BT-549 breast
SF-268 CNS = system: SF-268 CNS
A498 renal = system: A498 renal
HCC-2998 colon = system: HCC-2998 colon
T-47D breast = system: T-47D breast
UACC-62 melanoma = system: UACC-62 melanoma
RXF 393 renal = system: RXF 393 renal
HOP-62 NSCLC = system: HOP-62 NSCLC
SNB-19 CNS = system: SNB-19 CNS
U251 CNS = system: U251 CNS
SK-MEL-5 melanoma = system: SK-MEL-5 melanoma

## CCCCCCCC(=O)SCC/C=C/[C@@H]1CC(=O)NCc2nc(co2)C2=N[C@@](C)(CS2)C(=O)N[C@@H](C(C)C)C(=O)O1
HCT-116 colon
  GI50: 12.6 nM
  TGI: 1140 nM
SF-295 CNS
  GI50: 26.4 nM
  TGI: 282 nM
SK-MEL-28 melanoma
  GI50: 13.8 nM
  TGI: 936 nM
SF-539 CNS
  GI50: 18.2 nM
  TGI: > 50000 nM
NCI-H226 lung
  GI50: 86.1 nM
  TGI: 2370 nM
OVCAR-3 ovarian
  GI50: 24.1 nM
  TGI: 156 nM
SN12C renal
  GI50: 50.8 nM
  TGI: > 50000 nM
HL-60(TB) leukemia
  GI50: 29.4 nM
  TGI: 31800 nM
UO-31 renal
  GI50: 43 nM
  TGI: 487 nM
SK-OV-3 ovarian
  GI50: 10.7 nM
  TGI: 101 nM
HS 578T breast
  GI50: 12.5 nM
CAKI-1 renal
  GI50: 125 nM
  TGI: 394 nM
OVCAR-5 ovarian
  GI50: 8.49 nM
  TGI: > 50000 nM
MDA-MB-231 breast
  GI50: 54 nM
  TGI: 8130 nM
OVCAR-4 ovarian
  GI50: 27.6 nM
  TGI: > 50000 nM
A549 NSCLC
  GI50: 18.4 nM
  TGI: 1910 nM
HT29 colon
  GI50: 13.6 nM
  TGI: 7780 nM
SW-620 colon
  GI50: 42.3 nM
  TGI: 1900 nM
RPMI-8226 leukemia
  GI50: 90 nM
  TGI: > 50000 nM
LOX IMVI melanoma
  GI50: 27.7 nM
  TGI: 103 nM
CCRF-CEM leukemia
  GI50: 29.6 nM
  TGI: > 50000 nM
786-0 renal
  GI50: 45.6 nM
  TGI: > 50000 nM
KM12 colon
  GI50: 25.3 nM
  TGI: 1610 nM
SNB-75 CNS
  GI50: 10.8 nM
  TGI: > 50000 nM
MCF7 breast
  GI50: 31.1 nM
  TGI: > 50000 nM
HOP-92 NSCLC
  GI50: 14.7 nM
  TGI: 111 nM
SK-MEL-2 melanoma
  GI50: 13.2 nM
  TGI: 331 nM
MOLT-4 leukemia
  GI50: 24.1 nM
  TGI: 25700 nM
K-562 leukemia
  GI50: 39.8 nM
  TGI: > 50000 nM
IGROV1 ovarian
  GI50: 11.4 nM
  TGI: 163 nM
NCI-H23 lung
  GI50: 41.1 nM
M14 melanoma
  GI50: 20.5 nM
  TGI: > 50000 nM
MALME-3M melanoma
  GI50: 11.2 nM
  TGI: > 50000 nM
ACHN renal
  GI50: 47.5 nM
  TGI: 320 nM
NCI/ADR-RES ovarian
  GI50: 606 nM
  TGI: > 31600 nM
PC-3 prostate
  GI50: 14.2 nM
  TGI: > 50000 nM
SR leukemia
  GI50: 16.4 nM
  TGI: > 50000 nM
TK-10 renal
  GI50: 11.7 nM
  TGI: 126 nM
NCI-H522 lung
  GI50: 8.08 nM
  TGI: 121 nM
DU-145 prostate
  GI50: 12.3 nM
  TGI: > 50000 nM
COLO 205 colon
  GI50: 34.2 nM
  TGI: 141 nM
OVCAR-8 ovarian
  GI50: 12.4 nM
  TGI: > 50000 nM
EKVX NSCLC
  GI50: 34.4 nM
  TGI: > 50000 nM
MDA-MB-435
  GI50: 14.8 nM
  TGI: 1630 nM
HCT-15 colon
  GI50: 233 nM
  TGI: > 20400 nM
NCI-H460 lung
  GI50: 13.7 nM
  TGI: 8550 nM
BT-549 breast
  GI50: 127 nM
  TGI: > 50000 nM
SF-268 CNS
  GI50: 42.2 nM
  TGI: 8340 nM
A498 renal
  GI50: 9.6 nM
  TGI: 39.6 nM
HCC-2998 colon
  GI50: 19.6 nM
  TGI: 216 nM
T-47D breast
  GI50: 31.2 nM
  TGI: 201 nM
UACC-62 melanoma
  GI50: 9.17 nM
  TGI: 53.6 nM
RXF 393 renal
  GI50: 21.2 nM
  TGI: 139 nM
HOP-62 NSCLC
  GI50: 16.9 nM
SNB-19 CNS
  GI50: 115 nM
  TGI: > 50000 nM
U251 CNS
  GI50: 44.8 nM
  TGI: 472 nM
SK-MEL-5 melanoma
  GI50: 17.9 nM
  TGI: 77.6 nM
